Patent US8575193B2, “N-substituted tetrahydroisoquinoline/isoindoline hydroxamic acid compounds” (4SC AG, priority 2008, dated 2013)
Structures can show the parent of a compound that is named as a salt.

Key:
[1] = target: T1, rHDAC8 (Homo sapiens, UniProt Q9BY41); test: rHDAC8 enzymatic assay (recombinant FLAG-HDAC8); format: biochemical; conditions: FLAG-HDAC8 from insect cells; 50 μM Ac-RHK(Ac)K(Ac)-AMC, 3 h at 30° C.; read-out: rHDAC8 [pIC50] (converted)
T1 construct: FLAG; made in house; host or cells: baculovirus-infected Sf21 insect cells
T1 sequence (Q9BY41 1-377): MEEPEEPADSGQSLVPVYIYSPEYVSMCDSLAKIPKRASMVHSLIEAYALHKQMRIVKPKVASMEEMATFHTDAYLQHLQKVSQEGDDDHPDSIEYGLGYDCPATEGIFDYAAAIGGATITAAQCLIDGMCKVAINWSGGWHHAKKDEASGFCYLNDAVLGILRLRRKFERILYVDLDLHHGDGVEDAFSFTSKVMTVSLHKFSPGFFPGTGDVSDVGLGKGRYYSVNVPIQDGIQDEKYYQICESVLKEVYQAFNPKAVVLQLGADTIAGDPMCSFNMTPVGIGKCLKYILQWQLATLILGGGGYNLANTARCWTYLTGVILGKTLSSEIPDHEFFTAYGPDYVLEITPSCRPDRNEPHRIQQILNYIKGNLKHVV
Text: Human HDAC1 and HDAC6 fused with the FLAG epitope are stably expressed in HEK293 cells while human HDAC3 and HDAC8 fused with the FLAG epitope are overexpressed in baculo-virus infected insect (Sf21) cells. To ensure stability of FLAG-HDAC3 the SMRT protein is co-expressed in the corresponding insect cells. […] FLAG-HDAC3 and FLAG-HDAC8 are also purified by M2-agarose affinity chromatography after mass cultivation of the insect cells and cell lysis.
The HDAC enzyme activity assay is done as described by Wegener et al. (Chem. & Biol. 10, 61-68, 2003). Briefly 40 μl of a 1:100 dilution (=0.4 μl) nuclear HeLa extract (mixture of class I and II HDACs), 29 μl enzyme buffer (15 mM Tris HCl pH 8.1, 0.25 mM EDTA, 250 mM NaCl, 10% v:v glycerol) and 1 μl test compound are added to a well of a 96 well microtiter plate and reaction started by addition of 3 μl substrate (Ac-NH-GGK(Ac)-AMC; final concentration 25 μM and final volume […]). […] After incubation at room temperature for further 40 min, fluorescence is measured using a Wallac Victor 1420 multilabel counter (Ex 355 nm, Em 460 nm) for quantification of AMC (7-amino-4-methylcoumarin) generated by trypsine cleavage of the deacetylated peptide. […] The corresponding pIC50 values of the compounds for HDAC inhibitory activity are determined from the concentration-effect curves by means of non-linear regression (Graphpad Prism software).
The HDAC1, HDAC3 and HDAC6 enzymatic assays are done with slight modifications with recombinant FLAG-HDAC1 and FLAG-HDAC6 proteins isolated from HEK293 cell lysates or recombinant FLAG-HDAC3 isolated from insect cells, respectively. The HDAC8 enzymatic assay using recombinant FLAG-HDAC8 isolated from insect cells is done with a different substrate. About 4.5 ng/well FLAG-HDAC1 and 3.1 ng/well FLAG-HDAC6 (dependent on batches and specific activity) are incubated with 6 μM or 10 μM Ac-NH-GGK(Ac)-AMC substrate, respectively, for 3 h at 30° C. About 1.7 ng/well FLAG-HDAC3 is incubated with 6 μM Ac-NH-GGK(Ac)-AMC substrate for 2 h at 30° C., while approximately 130 ng/well FLAG-HDAC8 is incubated with 50 μM Ac-RHK(Ac)K(Ac)-AMC substrate for 3 h at 30° C. Termination of the reaction and all further steps are done as described for HeLa cell nuclear extracts as a source for HDAC enzymatic activity. The corresponding pIC50 values of the compounds for HDAC1, HDAC3, HDAC6 and HDAC8 inhibitory activity are determined from the concentration-effect curves by means of non-linear regression.

[2] = Cellular cytotoxicity assay (Alamar Blue/Resazurin), HeLa; format: cell-based; conditions: human, HeLa cells, 72 hours incubation, Resazurin, read-out: HeLa Cytotoxicity [pIC50] (converted)
Protocol: The anti-proliferative activity of the compounds as described herein, is evaluated with various solid and hematological cancer cell lines using the Alamar Blue (Resazurin) cell viability assay (O'Brien et al, Eur J Biochem 267, 5421-5426, 2000). Resazurin is reduced to the fluorescent resorufin by cellular dehydrogenase activity, correlating with viable, proliferating cells. Test compounds are dissolved as 20 mM solutions in dimethylsulfoxide (DMSO) and subsequently diluted in semi-logarithmic steps. The cancer cell lines are seeded into 96 well flat bottom plates at respective cell densities in a volume of 200 μl per well to allow continuous proliferation during the experiment. 24 hours after seeding 1 μl each of the compound dilutions is added into each well of the 96 well plate. Wells containing untreated control cells are filled with 200 μl DMEM medium containing 0.5% v:v DMSO. The cells are then incubated with the substances for 72 hours at 37° C. in a humidified atmosphere containing 5% carbon dioxide. To determine the viability of the cells, 20 μl of a Resazurin solution (Sigma; 90 mg/l) are added. After 4 hours incubation at 37° C. the fluorescence is measured at an extinction of 544 nm and an emission of 590 nm. For the calculation of the cell viability the emission value from untreated cells is set as 100% viability and the emission rates of treated cells are set in relation to the values of untreated cells. Viabilities are expressed as % values. The corresponding pIC50 values of the compounds for cytotoxic activity are determined from the concentration-effect curves by means of non-linear regression.

| Structure (SMILES) | IC50 [1] | IC50 at 72 h [2] |
| --- | --- | --- |
| Cc1nccn1CC(=O)N1CCc2cc(C(=O)NO)ccc2C1 [Example 10, N-Hydroxy-2-[(2-methyl-1H-imidazol-1-yl)acetyl]-1,2,3,4-tetrahydroisoquinoline-6-carboxamide hydrochloride] | 1000 to 10000 nM | > 100000 nM |
| O=C(NO)c1ccc2c(c1)CCN(C(=O)Cc1c[nH]c3ccccc13)C2 [Example 1, N-Hydroxy-2-(indol-3-ylacetyl)-1,2,3,4-tetrahydroisoquinoline-6-carboxamide hydrochloride] | 1000 to 10000 nM | 1000 to 100000 nM |
| COCCCOC(=O)N1CCc2cc(C(=O)NO)ccc2C1 [Example 6, 3-Methoxypropyl-6-(hydroxycarbamoyl)-3,4-dihydroisoquinoline-2(1H)-carboxylate] | 1000 to 10000 nM | > 100000 nM |
| CN(C)CCCC(=O)N1CCc2cc(C(=O)NO)ccc2C1 [Example 9, 2-[4-(Dimethylamino)butanoyl]-N-hydroxy-1,2,3,4-tetrahydroisoquinoline-6-carboxamide hydrochloride] | 1000 to 10000 nM | 1000 to 100000 nM |
| COCCOCC(=O)N1CCc2cc(C(=O)NO)ccc2C1 [Example 11, N-Hydroxy-2-[(2-methoxyethoxy)acetyl]-1,2,3,4-tetrahydroisoquinoline-6-carboxamide] | 1000 to 10000 nM | > 100000 nM |
| O=C(NO)c1ccc2c(c1)CCN(C(=O)CCc1cccnc1)C2 [Example 7, N-Hydroxy-2-(3-pyridin-3-ylpropanoyl)-1,2,3,4-tetrahydroisoquinoline-6-carboxamide hydrochloride] | 1000 to 10000 nM | > 100000 nM |
| O=C(NO)c1ccc2c(c1)CCN(C(=O)Cc1cccnc1)C2 [Example 8, N-Hydroxy-2-(pyridin-3-ylacetyl)-1,2,3,4-tetrahydroisoquinoline-6-carboxamide hydrochloride] | 1000 to 10000 nM | > 100000 nM |
| O=C(NO)c1ccc2c(c1)CCN(C(=O)C1CCC1)C2 [Example 3, 2-(Cyclobutylcarbonyl)-N-hydroxy-1,2,3,4-tetrahydroisoquinoline-6-carboxamide] | 1000 to 10000 nM | 1000 to 100000 nM |
| COCCCNC(=O)N1CCc2cc(C(=O)NO)ccc2C1 [Example 5, N6-Hydroxy-N2-(3-methoxypropyl)-3,4-dihydroisoquinoline-2,6(1H)-dicarboxamide] | 1000 to 10000 nM | > 100000 nM |
| CNC(=O)N1CCc2cc(C(=O)NO)ccc2C1 [Example 4, N6-Hydroxy-N2-methyl-3,4-dihydroisoquinoline-2,6(1H)-dicarboxamide] | 1000 to 10000 nM | > 100000 nM |

Now from value to compound, other results behind:

| IC50 [1] | Structure (SMILES) | IC50 at 72 h [2] |
| --- | --- | --- |
| 10 to 1000 nM | O=C(NO)c1ccc2c(c1)CN(C(=O)C1CCOC1)CC2 (centres unmarked) [Example 20, N-Hydroxy-2-(tetrahydrofuran-3-ylcarbonyl)-1,2,3,4-tetrahydroisoquinoline-7-carboxamide] | > 100000 nM |
| 1000 to 10000 nM | CC(=O)N1CCc2cc(C(=O)NO)ccc2C1 [Example 12, 2-Acetyl-N-hydroxy-1,2,3,4-tetrahydroisoquinoline-6-carboxamide] | > 100000 nM |
| 10 to 1000 nM | O=C(NO)c1ccc2c(c1)CN(C(=O)Cc1cccnc1)CC2 [Example 19, N-Hydroxy-2-(pyridin-3-ylacetyl)-1,2,3,4-tetrahydroisoquinoline-7-carboxamide hydrochloride] | 1000 to 100000 nM |
| 10 to 1000 nM | O=C(NO)c1ccc2c(c1)CN(C(=O)Cc1c[nH]c3ccccc13)CC2 [Example 18, N-Hydroxy-2-(1H-indol-3-ylacetyl)-1,2,3,4-tetrahydroisoquinoline-7-carboxamide] | 1000 to 100000 nM |
| 10 to 1000 nM | CC#CC(=O)N1CCc2ccc(C(=O)NO)cc2C1 [Example 17, 2-But-2-ynoyl-N-hydroxy-1,2,3,4-tetrahydroisoquinoline-7-carboxamide] | 1000 to 100000 nM |
| 1000 to 10000 nM | O=C(NO)c1ccc2c(c1)CCN(C(=O)C1CC1)C2 [Example 16, N-Hydroxy-2-(cyclopropylcarbonyl)-1,2,3,4-tetrahydroisoquinoline-6-carboxamide] | > 100000 nM |
| 10 to 1000 nM | O=C(NO)c1ccc2c(c1)CN(C(=O)Cc1ccccn1)CC2 [Example 21, N-Hydroxy-2-(pyridin-2-ylacetyl)-1,2,3,4-tetrahydroisoquinoline-7-carboxamide hydrochloride] | 1000 to 100000 nM |
| 10 to 1000 nM | Cc1ccc(C(=O)N2CCc3ccc(C(=O)NO)cc3C2)cc1 [Example 23, N-Hydroxy-2-(4-methylbenzoyl)-1,2,3,4-tetrahydroisoquinoline-7-carboxamide] | 1000 to 100000 nM |
| 10 to 1000 nM | O=C(NO)c1ccc2c(c1)CN(C(=O)NCCc1ccccc1)CC2 [Example 22, N7-Hydroxy-N2-(2-phenylethyl)-3,4-dihydroisoquinoline-2,7(1H)-dicarboxamide] | 1000 to 100000 nM |
| 10 to 1000 nM | COc1ccc2[nH]c(C(=O)N3CCc4ccc(C(=O)NO)cc4C3)cc2c1 [Example 24, N-Hydroxy-2-[(5-methoxy-1H-indol-2-yl)carbonyl]-1,2,3,4-tetrahydroisoquinoline-7-carboxamide] | 1000 to 100000 nM |
| 1000 to 10000 nM | O=C(NO)c1ccc2c(c1)CCN(C(=O)C1CCOC1)C2 (centres unmarked) [Example 13, N-Hydroxy-2-(tetrahydrofuran-3-ylcarbonyl)-1,2,3,4-tetrahydroisoquinoline-6-carboxamide] | > 100000 nM |
| 1000 to 10000 nM | COc1ccc2[nH]c(C(=O)N3CCc4cc(C(=O)NO)ccc4C3)cc2c1 [Example 15, N-Hydroxy-2-[(5-methoxy-1H-indol-2-yl)carbonyl]-1,2,3,4-tetrahydroisoquinoline-6-carboxamide] | 1000 to 100000 nM |
